# Data as given in article PMC4433622 (Cancer research, 2015).
# Where a chain is given by its changes, count along the chain named. Names and notes keep the numbering of the source. Peptide text beside a SMILES is read from it. * marks the point of attachment. Cbz = O=C(OCc1ccccc1)*; CH2F = FC*
# T1: RXRα-LBD (Homo sapiens, UniProt P19793)
# T1 sequence (P19793 223-462): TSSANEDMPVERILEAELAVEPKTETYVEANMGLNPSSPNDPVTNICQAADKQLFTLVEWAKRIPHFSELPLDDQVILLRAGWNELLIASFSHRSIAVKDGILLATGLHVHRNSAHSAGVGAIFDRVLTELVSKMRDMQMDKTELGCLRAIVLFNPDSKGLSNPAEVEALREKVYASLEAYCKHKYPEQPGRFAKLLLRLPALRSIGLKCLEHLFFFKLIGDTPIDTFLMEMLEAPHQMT
# T2: Gal4-DBD-RXRα-LBD (Homo sapiens, UniProt P19793)
# T2 sequence (P19793 227-458 limits assumed): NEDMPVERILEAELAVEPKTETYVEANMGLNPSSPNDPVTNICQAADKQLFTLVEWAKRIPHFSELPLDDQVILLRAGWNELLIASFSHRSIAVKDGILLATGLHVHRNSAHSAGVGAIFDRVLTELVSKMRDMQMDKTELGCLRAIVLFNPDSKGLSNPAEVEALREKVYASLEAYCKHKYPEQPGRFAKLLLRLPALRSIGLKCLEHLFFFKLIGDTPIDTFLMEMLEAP
# B1: RXRα-LBD/C432W (domain or fragment, human, UniProt P19793 223-462, looked up)
# chain: T1 sequence (P19793 223-462) with C210W
# Tests used:
# Gal4-DBD-RXRα-LBD/R316E = Gal4-DBD-RXRα-LBD/R316E (Homo sapiens, UniProt P19793, R316E); experiment: Mammalian one hybrid assay, Gal4-DBD-RXRα-LBD/R316E; format: cell-based; settings: HEK293T cells; 9-cis-RA 0.1 µM, Z-10 and Z-12 5 µM
# RARγ = RARγ (Homo sapiens, UniProt P13631); experiment: Mammalian one hybrid assay, RARγ chimeric reporter; format: cell-based; settings: HEK293T cells, 5 µM, 12 h
# LXRα = LXRα (Homo sapiens, UniProt Q13133); experiment: Mammalian one hybrid assay, LXRα chimeric reporter; format: cell-based; settings: HEK293T cells, 5 µM, 12 h
# [1] = test system: IκBα, IKKα/β in MCF-7 cells; experiment: TNFα-induced IκBα degradation and IKKα/β phosphorylation, immunoblotting; format: cell-based, human; settings: for TNFα-induced IKKα/β phosphorylation / TNFα-induced IκBα degradation: TNFα 10 ng/ml, Z-10 7.5 µM, Z-12 5 µM
# Gal4-DBD-RXRα-LBD C432S = Gal4-DBD-RXRα-LBD C432S (Homo sapiens, UniProt P19793, C432S); experiment: Mammalian one hybrid assay, Gal4-DBD-RXRα-LBD C432S mutant; format: cell-based; settings: HEK293T cells; 9-cis-RA 0.1 µM, Z-10 and Z-12 5 µM
# PPARγ = PPARγ (Homo sapiens, UniProt P37231); experiment: Mammalian one hybrid assay, PPARγ chimeric reporter; format: cell-based; settings: HEK293T cells, 5 µM, 12 h
# RXRα-LBD [2] = target: T1, RXRα-LBD; experiment: Differential scanning calorimetry; format: binding
# tRXRα with TRAF2 = tRXRα with TRAF2 (Homo sapiens, UniProt P19793); experiment: TNFα-induced TRAF2/tRXRα complex formation, co-immunoprecipitation; settings: HEK293T cells, 5 µM 1 h, TNFα 40 ng/ml 15 min
# RXRα homodimer = RXRα homodimer (Homo sapiens, UniProt P19793); experiment: RXRE-luciferase reporter assay; settings: HEK293T cells, 12 h
# p65 in MCF-7 cells = experiment: TNFα-induced p65 nuclear translocation, immunostaining; format: cell-based, human; settings: 10 µM pretreatment 1 h, TNFα 10 ng/ml 30 min
# Gal4-DBD-ERα-LBD = Gal4-DBD-ERα-LBD (Homo sapiens, UniProt P03372); experiment: Mammalian one hybrid assay, Gal4-DBD-ERα-LBD; format: cell-based; settings: HEK293T cells, 5 µM, 12 h
# Gal4-DBD-RARα-LBD = Gal4-DBD-RARα-LBD (Homo sapiens, UniProt P10276); experiment: Mammalian one hybrid assay, Gal4-DBD-RARα-LBD; format: cell-based; settings: HEK293T cells, 5 µM, 12 h
# RXRα-LBD [3] = target: T1, RXRα-LBD; experiment: Non-denaturing PAGE of RXRα-LBD oligomers; settings: Z compounds 10 µM, 9-cis-RA 0.5 µM, 3 h
# MCF-7 cells = experiment: Apoptosis; format: cell-based, human; settings: for apoptosis (PARP cleavage, nuclear fragmentation), agent alone / apoptosis (PARP cleavage, nuclear fragmentation) together with TNFα: MCF-7 cells, 9 h; for apoptosis (PARP cleavage, nuclear fragmentation) together with TNFα: with TNFα 10 ng/ml, Z-10 7.5 µM, Z-12 5 µM; for PARP cleavage induced by the combination of TNFα and Z compounds: effect of added agent on the combination
# tRXRα with p85α = experiment: TNFα-induced interaction of tRXRα with p85α; format: cell-based
# RXRα-LBD [4] = target: T1, RXRα-LBD; experiment: Ligand competition assay with [3H]9-cis-RA; format: binding
# MCF-7 xenografts = MCF-7 xenografts in nude mice; format: in vivo, Nude mice (BALB/c); settings: MCF-7 bearing mice, 30 mg/kg oral once a day
# RXRα-LBD [5] = target: T1, RXRα-LBD; experiment: Surface plasmon resonance; format: binding
# GR = GR (Homo sapiens, UniProt P04150); experiment: Mammalian one hybrid assay, GR chimeric reporter; format: cell-based; settings: HEK293T cells, 5 µM, 12 h
# Gal4-DBD-RXRα-LBD = target: T2, Gal4-DBD-RXRα-LBD; experiment: Mammalian one hybrid assay, Gal4-DBD-RXRα-LBD with pG5-luc reporter; format: cell-based; settings: HEK293T cells; for Gal4-DBD-RXRα-LBD transcriptional activity (relative luciferase activity): 10 µM, 12 h
# Akt = settings: by preventing the interaction of tRXRα and p85α; cited from earlier work
# RIP1 in MCF-7 cells = experiment: tRXRα-promoted TNFα-induced RIP1 ubiquitination; format: cell-based, human; settings: 10 µM 1 h, TNFα 20 ng/ml 5 min
# NFκB = NFκB reporter gene assay; format: cell-based
# SEC = target: the molecule itself; experiment: SEC
# Chain of GR (P04150 524-758 limits assumed): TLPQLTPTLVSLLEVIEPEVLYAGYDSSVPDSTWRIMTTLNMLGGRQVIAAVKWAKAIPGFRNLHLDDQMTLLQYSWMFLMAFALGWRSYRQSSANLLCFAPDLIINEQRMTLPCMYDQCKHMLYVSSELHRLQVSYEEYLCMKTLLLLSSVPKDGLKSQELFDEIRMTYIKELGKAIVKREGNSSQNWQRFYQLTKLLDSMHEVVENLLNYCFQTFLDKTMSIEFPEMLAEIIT
# Chain of Gal4-DBD-RARα-LBD (P10276 183-417 limits assumed): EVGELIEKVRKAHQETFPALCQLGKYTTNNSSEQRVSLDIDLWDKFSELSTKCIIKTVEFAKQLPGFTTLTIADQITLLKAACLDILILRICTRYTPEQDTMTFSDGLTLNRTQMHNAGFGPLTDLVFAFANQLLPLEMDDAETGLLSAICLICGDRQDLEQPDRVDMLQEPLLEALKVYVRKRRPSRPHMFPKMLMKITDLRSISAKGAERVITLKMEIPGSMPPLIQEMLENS
# Chain of LXRα (Q13133 209-447 limits assumed): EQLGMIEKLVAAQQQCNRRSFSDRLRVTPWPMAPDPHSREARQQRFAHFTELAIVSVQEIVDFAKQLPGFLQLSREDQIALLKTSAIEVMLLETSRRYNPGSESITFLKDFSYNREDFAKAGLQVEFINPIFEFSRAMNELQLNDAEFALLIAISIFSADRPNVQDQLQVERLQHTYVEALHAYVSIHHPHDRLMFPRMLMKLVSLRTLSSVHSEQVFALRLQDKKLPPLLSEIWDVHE
# Chain of PPARγ (P37231 238-503 limits assumed, species assumed): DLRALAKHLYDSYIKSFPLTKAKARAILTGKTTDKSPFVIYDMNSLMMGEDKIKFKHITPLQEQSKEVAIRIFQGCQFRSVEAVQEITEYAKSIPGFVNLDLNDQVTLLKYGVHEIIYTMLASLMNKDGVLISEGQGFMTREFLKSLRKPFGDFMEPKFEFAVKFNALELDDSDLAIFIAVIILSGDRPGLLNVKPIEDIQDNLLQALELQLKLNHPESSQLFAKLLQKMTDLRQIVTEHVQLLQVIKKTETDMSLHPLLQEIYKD
# Chain of RARγ (P13631 185-419 limits assumed, species assumed): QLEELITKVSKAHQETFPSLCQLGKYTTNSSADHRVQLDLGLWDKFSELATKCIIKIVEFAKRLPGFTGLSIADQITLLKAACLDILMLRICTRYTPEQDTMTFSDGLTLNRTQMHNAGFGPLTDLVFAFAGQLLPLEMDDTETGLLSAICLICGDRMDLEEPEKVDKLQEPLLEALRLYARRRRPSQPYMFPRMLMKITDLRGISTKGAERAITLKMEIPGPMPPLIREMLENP
# Chain of RXRα homodimer (P19793 whole entry): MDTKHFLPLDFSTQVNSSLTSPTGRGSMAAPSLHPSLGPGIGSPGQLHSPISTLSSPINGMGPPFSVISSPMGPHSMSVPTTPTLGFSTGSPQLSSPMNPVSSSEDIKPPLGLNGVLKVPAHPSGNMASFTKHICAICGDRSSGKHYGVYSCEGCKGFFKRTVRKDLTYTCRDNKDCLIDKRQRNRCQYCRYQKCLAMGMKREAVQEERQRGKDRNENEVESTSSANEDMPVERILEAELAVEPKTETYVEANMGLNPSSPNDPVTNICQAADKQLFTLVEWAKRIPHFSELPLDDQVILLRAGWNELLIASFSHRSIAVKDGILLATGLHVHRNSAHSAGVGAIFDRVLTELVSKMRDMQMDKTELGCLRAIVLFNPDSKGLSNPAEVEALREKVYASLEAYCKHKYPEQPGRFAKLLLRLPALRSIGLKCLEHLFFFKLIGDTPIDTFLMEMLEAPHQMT
# Chain of Gal4-DBD-ERα-LBD (P03372 311-547 limits assumed): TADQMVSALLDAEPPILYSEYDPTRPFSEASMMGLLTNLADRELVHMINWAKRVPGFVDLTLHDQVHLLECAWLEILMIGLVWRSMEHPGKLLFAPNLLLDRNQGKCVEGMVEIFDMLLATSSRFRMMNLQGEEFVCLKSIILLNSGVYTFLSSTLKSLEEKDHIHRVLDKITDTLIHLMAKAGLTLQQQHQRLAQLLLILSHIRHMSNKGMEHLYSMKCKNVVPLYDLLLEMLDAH
# Chain of tRXRα with TRAF2 (P19793 81-462 limits assumed): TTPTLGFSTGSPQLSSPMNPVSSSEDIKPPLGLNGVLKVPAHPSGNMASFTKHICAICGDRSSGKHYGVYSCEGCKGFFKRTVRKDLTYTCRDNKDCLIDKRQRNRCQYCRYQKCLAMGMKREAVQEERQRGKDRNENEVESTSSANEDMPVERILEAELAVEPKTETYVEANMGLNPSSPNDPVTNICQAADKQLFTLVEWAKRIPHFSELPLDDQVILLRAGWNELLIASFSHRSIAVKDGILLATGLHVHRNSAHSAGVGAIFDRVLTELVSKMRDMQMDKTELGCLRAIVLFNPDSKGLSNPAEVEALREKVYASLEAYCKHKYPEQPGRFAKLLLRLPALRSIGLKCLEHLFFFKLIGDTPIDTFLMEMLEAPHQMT
# Chain of Gal4-DBD-RXRα-LBD/R316E (P19793 227-458 R316E limits assumed): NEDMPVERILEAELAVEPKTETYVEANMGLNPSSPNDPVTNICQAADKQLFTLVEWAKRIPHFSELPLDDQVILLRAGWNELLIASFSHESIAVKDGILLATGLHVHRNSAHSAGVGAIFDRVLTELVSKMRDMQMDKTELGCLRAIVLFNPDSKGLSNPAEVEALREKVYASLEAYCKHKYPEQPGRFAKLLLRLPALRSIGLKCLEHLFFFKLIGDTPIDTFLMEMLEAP
# Chain of Gal4-DBD-RXRα-LBD C432S (P19793 227-458 C432S limits assumed): as the sequence (P19793 227-458 R316E limits assumed) above, with E90R, C206S counted along it
molecule,measurement,setting,value
"O=[N+]([O-])/C=C/c1c2ccccc2cc2ccccc12 [Z-12, (E)-9-(2-nitrovinyl)anthracene]",transactivation of Gal4-DBD-RXRα-LBD/R316E,Gal4-DBD-RXRα-LBD/R316E,strongly activated
same,activation of RARγ chimeric reporter,RARγ,neither of them significantly activated
same,activation of LXRα chimeric reporter,LXRα,neither of them significantly activated
same,TNFα-induced IKKα/β phosphorylation,[1]; MCF-7 cells,significantly inhibited
same,TNFα-induced IκBα degradation,[1]; MCF-7 cells,significantly inhibited
same,effect on inhibiting TNFα-induced IκBα degradation when TRAF2 expression was suppressed by siRNA,"[1]; MCF-7 cells, TRAF2 siRNA 36 h, TNFα 10 ng/ml 30 min",dramatically reduced
same,activation of Gal4-DBD-RXRα-LBD with Cys432 mutated to Ser,Gal4-DBD-RXRα-LBD C432S,completely incapacitated
same,activation of PPARγ chimeric reporter,PPARγ,neither of them significantly activated
same,Tm values of RXRα-LBD protein (DSC),RXRα-LBD [2],shifted higher
same,TNFα-induced interaction of tRXRα with TRAF2,tRXRα with TRAF2,strongly inhibited
same,effect on 9-cis-RA-induced RXRα homodimer transactivation,RXRα homodimer; 5 µM with 9-cis-RA 0.1 µM,inhibited 9-cis-RA-induced transactivation
same,transactivation of RXRα homodimer (RXRE-luciferase),RXRα homodimer; 5 µM,failed to induce the transactivation
same,TNFα-induced p65 nuclear translocation,p65 in MCF-7 cells,significantly inhibited
same,activation of ERα chimeric reporter,Gal4-DBD-ERα-LBD,neither of them significantly activated
same,activation of RARα chimeric reporter,Gal4-DBD-RARα-LBD,neither of them significantly activated
same,RXRα-LBD tetramer/dimer formation on native gel,RXRα-LBD [3],induced homodimer formation
same,"apoptosis (PARP cleavage, nuclear fragmentation), agent alone",MCF-7 cells,did not happen
same,"apoptosis (PARP cleavage, nuclear fragmentation) together with TNFα",MCF-7 cells,significant apoptosis
same,inhibition of TNFα-induced interaction of tRXRα with p85α,tRXRα with p85α,could not inhibit
same,IC50,RXRα-LBD [4],0.81 µM
same,"tumor growth and apoptosis of cancer cells, compound alone",MCF-7 xenografts,Tumor growth inhibition and extensive apoptosis of cancer cells
same,Kd,RXRα-LBD [5],1.95 µM
same,activation of GR chimeric reporter,GR,neither of them significantly activated
same,"RXRα transactivation, dose dependence",Gal4-DBD-RXRα-LBD,dose-dependently activated
same,RXRα transactivation relative to activity of 0.1 µM 9-cis-RA,"Gal4-DBD-RXRα-LBD; compound at 10 µM, % of activity of 0.1 µM 9-cis-RA",about 50%
CCCCCOc1cc2c(cc1-c1cc(/C=C/C(=O)O)ccc1O)C(C)(C)CCC2(C)C [UVI3003],TNFα-induced IκBα degradation,[1]; MCF-7 cells,did not show apparent effects
same,"apoptosis (PARP cleavage, nuclear fragmentation) together with TNFα",MCF-7 cells,little effect
same,PARP cleavage induced by the combination of TNFα and Z compounds,MCF-7 cells,able to suppress
"O=[N+]([O-])/C=C/c1ccc2ccccc2c1 [Z-11, (E)-2-(2-nitrovinyl)naphthalene]",Tm values of RXRα-LBD protein (DSC),RXRα-LBD [2],shifted higher
same,RXRα-LBD tetramer/dimer formation on native gel,RXRα-LBD [3],induced higher levels of RXRα-LBD oligomerization
same,IC50,RXRα-LBD [4],0.33 µM
same,Gal4-DBD-RXRα-LBD transcriptional activity (relative luciferase activity),Gal4-DBD-RXRα-LBD,unable to activate RXRα
TNFα,"apoptosis (PARP cleavage, nuclear fragmentation), agent alone",MCF-7 cells,did not happen
CC1=C(CC(=O)O)c2cc(F)ccc2/C1=C\c1ccc(C(C)C)cc1 [K-80003],inhibition of TNFα-induced Akt activation,Akt,could inhibit
COC(=O)C[C@H](NC(=O)[C@H](C)NC(=O)[C@@H](NC(=O)OCc1ccccc1)C(C)C)C(=O)CF [Z-VAD-FMK] (Cbz-Val-Ala-Asp(OMe)-CH2F),PARP cleavage induced by the combination of TNFα and Z compounds,MCF-7 cells,completely blocked
"Cc1ccc(/C=C/[N+](=O)[O-])cc1 [Z-1, (E)-1-methyl-4-(2-nitrovinyl)benzene]",Gal4-DBD-RXRα-LBD transcriptional activity (relative luciferase activity),Gal4-DBD-RXRα-LBD,selectively activated
CD3254,TNFα-induced IκBα degradation,[1]; MCF-7 cells,did not show apparent effects
same,"apoptosis (PARP cleavage, nuclear fragmentation) together with TNFα",MCF-7 cells,little effect
same,PARP cleavage induced by the combination of TNFα and Z compounds,MCF-7 cells,able to suppress
"CC1=C(/C=C/C(C)=C\C=C\C(C)=C\C(=O)O)C(C)(C)CCC1 [9-cis-RA, 9-cis-retinoic acid]",TNFα-induced IκBα degradation,[1]; MCF-7 cells,did not show apparent effects
same,"apoptosis (PARP cleavage, nuclear fragmentation) together with TNFα",MCF-7 cells,little effect
same,PARP cleavage induced by the combination of TNFα and Z compounds,MCF-7 cells,able to suppress
"O=[N+]([O-])/C=C/c1cccc2ccccc12 [Z-10, (E)-1-(2-nitrovinyl)naphthalene]",activation of RARγ chimeric reporter,RARγ,neither of them significantly activated
same,activation of LXRα chimeric reporter,LXRα,neither of them significantly activated
same,"inhibitory effect on TNFα-induced IκBα degradation, MCF-7 versus H460 cells","[1]; 7.5 µM 1 h, TNFα 30 min, MCF-7 express higher RXRα and tRXRα than H460",stronger in MCF-7 cells
same,TNFα-induced IKKα/β phosphorylation,[1]; MCF-7 cells,significantly inhibited
same,TNFα-induced IκBα degradation,[1]; MCF-7 cells,significantly inhibited
same,RXRα/Δ80-promoted TNFα-induced RIP1 ubiquitination,RIP1 in MCF-7 cells,largely blocked
same,activation of PPARγ chimeric reporter,PPARγ,neither of them significantly activated
same,TNFα-induced p65 nuclear translocation,p65 in MCF-7 cells,significantly inhibited
same,activation of ERα chimeric reporter,Gal4-DBD-ERα-LBD,neither of them significantly activated
same,activation of RARα chimeric reporter,Gal4-DBD-RARα-LBD,neither of them significantly activated
same,"apoptosis (PARP cleavage, nuclear fragmentation), agent alone",MCF-7 cells,did not happen
same,"apoptosis (PARP cleavage, nuclear fragmentation) together with TNFα",MCF-7 cells,significant apoptosis
same,inhibition of NFκB activation by TNFα (reporter gene assay),NFκB,dose-dependently inhibited
same,"tumor growth and apoptosis of cancer cells, compound alone",MCF-7 xenografts,Tumor growth inhibition and extensive apoptosis of cancer cells
same,activation of GR chimeric reporter,GR,neither of them significantly activated
B1,stoichiometry N,SEC,2
